Results: paper PMC4891693, “Discovery of prenylated flavonoids with dual activity against influenza virus and Streptococcus pneumoniae” (Scientific Reports, 2016)
≈ marks a conversion by molar mass, not a printed value. Where “and” joins values, the source holds several entries; their conditions need not be identical. Identical values can stand only once. Entries after “also recorded” stand apart in the source; their conditions may differ. Like-named read-outs stand apart in the source and are kept apart here.

What was measured:
[1] = target: influenza virus A/WSN/33 NA (Influenza A virus, UniProt P03470); experiment: biochemical
[2] = tested on: IAV Jena/8178/2009 (8178/09); experiment: microbe, parasite or virus in culture; assay type: cell-based, Influenza A virus; settings: 48 h, read-out: IC50 of CPE IAV 8178/09
[3] = tested on: NA of S. pneumoniae DSM20566 (precipitated bacterial proteins); experiment: Hemagglutination (HA)-based NA inhibition assay, bacterial; assay type: biochemical, Streptococcus pneumoniae; settings: pure compounds; total protein of DSM20566; human erythrocytes; highest tested 100 μM
Source text: Inhibition of pneumococcal NAs circumvents hemagglutination.

[4] = tested on: influenza virus A/WSN/33; experiment: microbe, parasite or virus in culture; assay type: cell-based; settings: read-out: IC50 of CPE assay (A/WSN/33)
[5] = tested on: human erythrocytes
[6] = tested on: human erythrocytes; remark: listed apart in the source
[7] = Cytotoxicity in A549 cells; settings: human
[8] = Cytotoxicity in MDCK cells; settings: dog
[9] = tested on: human erythrocytes; experiment: Interference with hemagglutination in the viral HA assay
[10] = in vitro; settings: human
[11] = in vitro; settings: dog
[12] = tested on: IAV 8178/09 in A549 cells; assay type: cell-based, Influenza A virus; settings: 50 µM
[13] = tested on: S. pneumoniae DSM20566 biofilm; experiment: Scanning electron microscopy of pneumococcal biofilm on glass slides; assay type: cell-based, Streptococcus pneumoniae; settings: 10 μM, 7 days
[14] = tested on: human lung carcinoma cells (A549); experiment: Cytotoxicity in A549 cells; settings: read-out: CC50 in A549 cells; pure compounds; 72 h; highest tested 100 μM
[15] = tested on: Madin-Darby canine kidney (MDCK) cells; experiment: Cytotoxicity in MDCK cells; settings: read-out: CC50 in MDCK cells; pure compounds; 72 h; highest tested 100 μM
[16] = tested on: Madin-Darby canine kidney (MDCK) cells
[17] = tested on: human lung carcinoma cells (A549)
[18] = pure compounds, human erythrocytes, 2 h at 4 °C
[19] = treatment from 3 h after inoculation

Sequence of influenza virus A/WSN/33 NA (P03470 whole entry, looked up): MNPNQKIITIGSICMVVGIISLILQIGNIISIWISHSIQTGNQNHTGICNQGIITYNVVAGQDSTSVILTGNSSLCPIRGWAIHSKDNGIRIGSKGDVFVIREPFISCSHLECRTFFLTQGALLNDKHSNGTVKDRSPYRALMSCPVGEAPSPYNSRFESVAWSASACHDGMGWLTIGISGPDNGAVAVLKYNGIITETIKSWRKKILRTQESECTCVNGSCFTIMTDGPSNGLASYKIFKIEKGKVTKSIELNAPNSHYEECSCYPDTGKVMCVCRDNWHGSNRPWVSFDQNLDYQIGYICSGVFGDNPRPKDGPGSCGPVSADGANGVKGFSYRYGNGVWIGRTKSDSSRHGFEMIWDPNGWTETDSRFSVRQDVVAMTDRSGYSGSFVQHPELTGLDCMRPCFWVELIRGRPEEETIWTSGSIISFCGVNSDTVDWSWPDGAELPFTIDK

Row | Compound | IC50 [1] [µM] | IC50 ([2]; Influenza A virus, MDCK) [µM] | MIC in HA assay against S. pneumoniae DSM20566 [3] | IC50 ([4]; WSN, MDCK) [µM] | sample concentrations provoking induction of erythrocyte lysis in viral HA assay [5] | sample concentrations provoking induction of erythrocyte lysis in bacterial HA assay [6] | sample concentrations provoking prevention of virus-induced hemagglutination in viral HA assay [9] | CC50 at 72 h [10] [µM] | CC50 at 72 h [11] [µM] | sample concentrations provoking prevention of virus-induced hemagglutination in viral HA assay [9, 18] | also measured
1 | O=C1CC(c2ccc(O)c(O)c2)Oc2cc(O)cc(O)c21 (racemic) [Compound 11, (±)-eriodictyol] | > 100 | 78.3 ± 5.72 | 45.3 ± 30.6 µM (≈ 13.1 µg/mL) | 68.4 ± 12.9 | no | no | no |  |  |  | CC50 at 72 h [7]: > 100 µM; CC50 at 72 h [8]: > 100 µM
2 | COc1cc([C@H]2Oc3cc([C@H]4Oc5cc(O)cc(O)c5C(=O)[C@@H]4O)ccc3O[C@@H]2CO)ccc1O (racemic) [Compound 17, (±)-silybin] | 9.18 ± 1.5 | > 100 |  | > 100 | no | no |  | > 100 | > 100 | no | 
3 | CC(C)=CCc1cc(C2CC(=O)c3ccc(O)cc3O2)ccc1O (racemic) [Compound 18, (±)-abyssinone II] | > 100 | 25.9 ± 3.67 |  | 11.4 ± 3 | no | no | no | > 100 | 59.2 ± 15 |  | 
4 | CC(C)=CCC/C(C)=C/Cc1c(O)ccc([C@@H]2CC(=O)c3c(O)cc(O)cc3O2)c1O [Compound 5, sanggenol A] | 65.5 ± 9.29 |  | 31.6 µM and 31.6 ± 0.00 µM | 35.4 ± 14.6 |  |  | 100 or no | > 100 | 42.1 ± 4.45 |  | sample concentrations provoking induction of erythrocyte lysis in viral HA assay ([5]; human): 100 or no; sample concentrations provoking induction of erythrocyte lysis in bacterial HA assay ([6]; human): 100 µM; viral yield in A549 cells in the presence of NanA of DSM20566 [12]: 31.8 ± 4.5%; virus yield in A549 cells in the absence of NanA [12]: 5.1 ± 1.8%
5 | COc1c(O)cc2c(c1O)C(=O)CC(c1ccccc1)O2 (stereo not drawn) [Compound 8, 2,3-dihydro-5,7-dihydroxy-6-methoxy-2-phenyl-4H-1-benzopyran-4-one] | > 100 | > 100 |  | > 100 | no | no |  | > 100 | > 100 | no | 
6 | O=C1CC(c2ccc(O)cc2O)Oc2cc(O)cc(O)c21 (stereo not drawn) [Compound 12, 2',4',5,7-tetrahydroxyflavanone] | 77.7 ± 5.56 | > 100 | 72.6 ± 37.5 µM (≈ 20.9 µg/mL) | 81.3 ± 10.4 | no | no | no | > 100 | > 100 |  | 
7 | O=c1cc(-c2ccc(O)c(O)c2O)oc2cc(O)cc(O)c12 [Compound 14, 2',3',4',5,7-pentahydroxyflavone] | > 100 | > 100 | 72.6 ± 37.5 µM (≈ 21.9 µg/mL) | > 100 | no | no | no | > 100 | > 100 |  | 
8 | O=c1cc(-c2ccc(O)c(O)c2)oc2cc(O)cc(O)c12 [Compound 15, luteolin] | > 100 |  | 23.0 ± 11.8 µM (≈ 6.58 µg/mL) |  |  |  | no |  |  |  | CC50 at 72 h [7]: > 100 µM; CC50 at 72 h [8]: 23 ± 0.18 µM
9 | O=c1c(O)c(-c2ccc(O)cc2O)oc2cc(O)cc(O)c12 [Compound 16, morin] | 62 ± 8.03 | 70.1 ± 9.83 | 23.0 ± 11.8 µM (≈ 6.95 µg/mL) | > 100 | no | no | no | > 100 | > 100 |  | 
10 | COc1c(CC=C(C)C)cc([C@@H]2CC(=O)c3c(O)cc(O)cc3O2)cc1CC=C(C)C [Compound 27, abyssinone-V 4'-methyl ether] | 33.1 ± 11.7 |  | 7.72 ± 3.53 µM (≈ 3.26 µg/mL) |  | no |  | 3.16 to 100 µM | > 100 | 2.29 ± 0.1 |  | biofilm formation by scanning electron microscopy [13, 19]: completely prevented biofilm formation; also recorded: strong effect; biofilm formation by scanning electron microscopy ([13]; treatment from 6 h after inoculation): no biofilm was formed; biofilm formation by scanning electron microscopy ([13]; treatment from 9 h after inoculation): affected biofilm formation weakly; biofilm formation by scanning electron microscopy ([13]; treatment from 48 h after inoculation): had no effect; sample concentrations provoking induction of erythrocyte lysis in bacterial HA assay ([6]; human): 31.6 to 100 µM; viral yield in A549 cells in the presence of NanA of DSM20566 [12]: 7.4 ± 1.2%; virus yield in A549 cells in the absence of NanA [12]: 3.2 ± 1.4%
11 | CCC(CC)O[C@@H]1C=C(C(=O)O)C[C@H](N)[C@H]1NC(C)=O [Oseltamivir carboxylate GS4071, reference compound] |  |  | 2.08 ± 1.25 µM (≈ 0.591 µg/mL) |  |  |  |  |  |  |  | biofilm formation by scanning electron microscopy [13, 19]: did not impair biofilm formation
12 | sanggenon D [Compound 3] |  |  | 31.6 µM and 31.6 ± 0.00 µM |  |  | 100 µM |  |  |  | no | CC50 [14]: 79.9 ± 11.2 µM; CC50 [15]: 99 ± 8.7 µM; sample concentrations provoking induction of erythrocyte lysis in viral HA assay [9, 18]: 31.6 to 100 µM
13 | sanggenon G [Compound 4] |  |  | 5.4 µM and 5.44 ± 3.95 µM |  |  | 31.6 to 100 µM |  |  |  | 3.1 to 100 µM | IC50 ([1]; read-out: IC50 in FL assay (influenza virus A/WSN/33 NA)): 61.7 ± 17.8 µM; IC50 [2]: 8.78 ± 0.89 µM; IC50 [4]: 15.2 ± 14 µM; CC50 [16]: > 100 µM; CC50 [17]: 72.9 ± 17.2 µM; sample concentrations provoking induction of erythrocyte lysis in viral HA assay [9, 18]: 10 to 100 µM
